Source: PubChem BioAssay (NCI)
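Results reflect a 48-hour exposure of cells in 96-well plates to compound at five concentrations. TGI is the concentration that stops growth completely.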

Legend:
Assay in all cases: NCI anticancer screen, dose series, 48 h
SK-OV-3 ovarian = tested on: SK-OV-3 ovarian
SF-295 CNS = tested on: SF-295 CNS
DMS 273 small cell lung = tested on: DMS 273 small cell lung
SW-620 colon = tested on: SW-620 colon
TK-10 renal = tested on: TK-10 renal
HL-60(TB) leukemia = tested on: HL-60(TB) leukemia
SK-MEL-5 melanoma = tested on: SK-MEL-5 melanoma
CAKI-1 renal = tested on: CAKI-1 renal
MALME-3M melanoma = tested on: MALME-3M melanoma
OVCAR-8 ovarian = tested on: OVCAR-8 ovarian
SK-MEL-28 melanoma = tested on: SK-MEL-28 melanoma
NCI-H226 lung = tested on: NCI-H226 lung
U251 CNS = tested on: U251 CNS
HCT-15 colon = tested on: HCT-15 colon
M14 melanoma = tested on: M14 melanoma
RXF 393 renal = tested on: RXF 393 renal
M19-MEL melanoma = tested on: M19-MEL melanoma
K-562 leukemia = tested on: K-562 leukemia
SN12C renal = tested on: SN12C renal
NCI-H522 lung = tested on: NCI-H522 lung
SNB-78 CNS = tested on: SNB-78 CNS
OVCAR-4 ovarian = tested on: OVCAR-4 ovarian
OVCAR-3 ovarian = tested on: OVCAR-3 ovarian
786-0 renal = tested on: 786-0 renal
DU-145 prostate = tested on: DU-145 prostate
HOP-92 NSCLC = tested on: HOP-92 NSCLC
RPMI-8226 leukemia = tested on: RPMI-8226 leukemia
LXFL 529 NSCLC = tested on: LXFL 529 NSCLC
KM12 colon = tested on: KM12 colon
SF-539 CNS = tested on: SF-539 CNS
IGROV1 ovarian = tested on: IGROV1 ovarian
SNB-19 CNS = tested on: SNB-19 CNS
SNB-75 CNS = tested on: SNB-75 CNS
A549 NSCLC = tested on: A549 NSCLC
KM20L2 colon = tested on: KM20L2 colon
HT29 colon = tested on: HT29 colon
COLO 205 colon = tested on: COLO 205 colon
OVCAR-5 ovarian = tested on: OVCAR-5 ovarian
HCC-2998 colon = tested on: HCC-2998 colon
UACC-62 melanoma = tested on: UACC-62 melanoma
UACC-257 melanoma = tested on: UACC-257 melanoma
MOLT-4 leukemia = tested on: MOLT-4 leukemia
DLD-1 colon = tested on: DLD-1 colon
EKVX NSCLC = tested on: EKVX NSCLC
NCI-H23 lung = tested on: NCI-H23 lung
HCT-116 colon = tested on: HCT-116 colon
SK-MEL-2 melanoma = tested on: SK-MEL-2 melanoma
CCRF-CEM leukemia = tested on: CCRF-CEM leukemia
SF-268 CNS = tested on: SF-268 CNS
A498 renal = tested on: A498 renal
DMS 114 small cell lung = tested on: DMS 114 small cell lung
ACHN renal = tested on: ACHN renal
UO-31 renal = tested on: UO-31 renal
NCI-H460 lung = tested on: NCI-H460 lung
HOP-18 NSCLC = tested on: HOP-18 NSCLC
SR leukemia = tested on: SR leukemia
LOX IMVI melanoma = tested on: LOX IMVI melanoma
HOP-62 NSCLC = tested on: HOP-62 NSCLC

O=C1C(=Cc2c(O)cc(O)cc2O)C(=O)c2ccccc21
TGI (SK-OV-3 ovarian): > 100 µM
TGI (SF-295 CNS): > 57 µM
TGI (DMS 273 small cell lung): > 100 µM
TGI (SW-620 colon): > 56.5 µM
TGI (TK-10 renal): > 67.5 µM
TGI (HL-60(TB) leukemia): 43.5 µM
TGI (SK-MEL-5 melanoma): > 100 µM
TGI (CAKI-1 renal): > 65.5 µM
TGI (MALME-3M melanoma): > 59.3 µM
TGI (OVCAR-8 ovarian): > 59.7 µM
TGI (SK-MEL-28 melanoma): > 60.3 µM
TGI (NCI-H226 lung): > 63 µM
TGI (U251 CNS): > 57.2 µM
TGI (HCT-15 colon): > 77 µM
TGI (M14 melanoma): > 57.2 µM
TGI (RXF 393 renal): 27.9 µM
TGI (M19-MEL melanoma): > 53 µM
TGI (K-562 leukemia): > 93.2 µM
TGI (SN12C renal): 37.6 µM
TGI (NCI-H522 lung): > 60.3 µM
TGI (SNB-78 CNS): 62.1 µM
TGI (OVCAR-4 ovarian): > 72.7 µM
TGI (OVCAR-3 ovarian): > 55 µM
TGI (786-0 renal): > 56.4 µM
TGI (DU-145 prostate): 38.5 µM
TGI (HOP-92 NSCLC): > 58 µM
TGI (RPMI-8226 leukemia): > 71.9 µM
TGI (LXFL 529 NSCLC): > 57.5 µM
TGI (KM12 colon): > 51.4 µM
TGI (SF-539 CNS): > 58.5 µM
TGI (IGROV1 ovarian): > 59.8 µM
TGI (SNB-19 CNS): > 56.9 µM
TGI (SNB-75 CNS): > 59.7 µM
TGI (A549 NSCLC): > 100 µM
TGI (KM20L2 colon): > 57.6 µM
TGI (HT29 colon): > 56.4 µM
TGI (COLO 205 colon): > 56 µM
TGI (OVCAR-5 ovarian): > 57.7 µM
TGI (HCC-2998 colon): > 56.4 µM
TGI (UACC-62 melanoma): > 54.9 µM
TGI (UACC-257 melanoma): > 58.1 µM
TGI (MOLT-4 leukemia): > 81.6 µM
TGI (DLD-1 colon): > 55.2 µM
TGI (EKVX NSCLC): > 100 µM
TGI (NCI-H23 lung): > 53.9 µM
TGI (HCT-116 colon): > 53.7 µM
TGI (SK-MEL-2 melanoma): > 56.5 µM
TGI (CCRF-CEM leukemia): > 73.1 µM
TGI (SF-268 CNS): > 63.1 µM
TGI (A498 renal): 98.7 µM
TGI (DMS 114 small cell lung): > 100 µM
TGI (ACHN renal): > 57.6 µM
TGI (UO-31 renal): > 100 µM
TGI (NCI-H460 lung): > 67.7 µM
TGI (HOP-18 NSCLC): 58.7 µM
TGI (SR leukemia): 50.7 µM
TGI (LOX IMVI melanoma): 29.2 µM
TGI (HOP-62 NSCLC): > 100 µM

O=C(Nc1ccc([N+](=O)[O-])cc1Cl)c1cccc([N+](=O)[O-])c1O
TGI (SF-295 CNS): 6.26 µM
TGI (SW-620 colon): > 100 µM
TGI (HL-60(TB) leukemia): 5.43 µM
TGI (CAKI-1 renal): 5.21 µM
TGI (MALME-3M melanoma): 4.73 µM
TGI (SK-MEL-28 melanoma): 19.4 µM
TGI (NCI-H226 lung): 9.31 µM
TGI (U251 CNS): > 100 µM
TGI (K-562 leukemia): 12.5 µM
TGI (SN12C renal): 8.09 µM
TGI (NCI-H522 lung): 4.32 µM
TGI (SNB-78 CNS): 9.75 µM
TGI (OVCAR-4 ovarian): 45.3 µM
TGI (RPMI-8226 leukemia): 5.78 µM
TGI (LXFL 529 NSCLC): 13.6 µM
TGI (KM12 colon): 15.3 µM
TGI (SF-539 CNS): 10.9 µM
TGI (SNB-19 CNS): > 100 µM
TGI (A549 NSCLC): 7.31 µM
TGI (KM20L2 colon): 10.2 µM
TGI (HT29 colon): 79.7 µM
TGI (OVCAR-5 ovarian): > 100 µM
TGI (HCC-2998 colon): 20.9 µM
TGI (UACC-257 melanoma): 6.95 µM
TGI (MOLT-4 leukemia): 28.3 µM
TGI (EKVX NSCLC): 6.54 µM
TGI (NCI-H23 lung): 4.01 µM
TGI (SK-MEL-2 melanoma): 6.1 µM
TGI (CCRF-CEM leukemia): > 100 µM
TGI (SF-268 CNS): 27.3 µM
TGI (A498 renal): 3.66 µM
TGI (ACHN renal): 48.1 µM
TGI (UO-31 renal): 5.58 µM
TGI (NCI-H460 lung): 13.3 µM
TGI (SR leukemia): 18.9 µM
TGI (LOX IMVI melanoma): 14.5 µM

O=C1c2ccc(O)c(O)c2C(=O)c2c(O)ccc(O)c21
TGI (SK-OV-3 ovarian): 72.8 µM
TGI (SF-295 CNS): 78.5 µM
TGI (DMS 273 small cell lung): 61.7 µM
TGI (SW-620 colon): > 100 µM
TGI (TK-10 renal): > 100 µM
TGI (OVCAR-8 ovarian): 80.8 µM
TGI (SK-MEL-28 melanoma): > 100 µM
TGI (NCI-H226 lung): 50.5 µM
TGI (U251 CNS): > 100 µM
TGI (HCT-15 colon): 89.1 µM
TGI (M14 melanoma): 54 µM
TGI (RXF 393 renal): 55.2 µM
TGI (M19-MEL melanoma): > 100 µM
TGI (K-562 leukemia): 70.9 µM
TGI (SN12C renal): 56.7 µM
TGI (NCI-H522 lung): 3.03 µM
TGI (SNB-78 CNS): > 100 µM
TGI (OVCAR-4 ovarian): 6.53 µM
TGI (OVCAR-3 ovarian): 49.7 µM
TGI (786-0 renal): > 100 µM
TGI (HOP-92 NSCLC): 57.7 µM
TGI (RPMI-8226 leukemia): > 100 µM
TGI (LXFL 529 NSCLC): > 100 µM
TGI (KM12 colon): 98.9 µM
TGI (SF-539 CNS): 49.2 µM
TGI (IGROV1 ovarian): > 100 µM
TGI (SNB-19 CNS): 85.3 µM
TGI (A549 NSCLC): 50.3 µM
TGI (KM20L2 colon): 70.8 µM
TGI (HT29 colon): > 100 µM
TGI (COLO 205 colon): 48.5 µM
TGI (OVCAR-5 ovarian): 76.5 µM
TGI (HCC-2998 colon): 47.9 µM
TGI (UACC-62 melanoma): 41.6 µM
TGI (UACC-257 melanoma): 49.3 µM
TGI (MOLT-4 leukemia): 62.2 µM
TGI (DLD-1 colon): > 100 µM
TGI (EKVX NSCLC): 67.4 µM
TGI (NCI-H23 lung): 93.8 µM
TGI (HCT-116 colon): 45.2 µM
TGI (SK-MEL-2 melanoma): 66.5 µM
TGI (CCRF-CEM leukemia): 56.7 µM
TGI (SF-268 CNS): > 100 µM
TGI (A498 renal): 53.8 µM
TGI (DMS 114 small cell lung): 32.6 µM
TGI (ACHN renal): 52.5 µM
TGI (UO-31 renal): 42.8 µM
TGI (NCI-H460 lung): 49.8 µM
TGI (SR leukemia): 93.7 µM
TGI (LOX IMVI melanoma): 44.3 µM
TGI (HOP-62 NSCLC): 65.4 µM

CC(=O)O[C@H]1C(=O)[C@@]2(C)C(C(OC(=O)c3ccccc3)C3[C@@H](O)C(OC(=O)[C@@H](O)[C@H](NC(=O)c4ccccc4)c4ccc(C(F)(F)F)cc4)C(C)=C1C3(C)C)[C@]1(OC(C)=O)CO[C@@H]1C[C@@H]2O (some centres not stated)
TGI (SK-OV-3 ovarian): > 25 µM
TGI (SF-295 CNS): > 25 µM
TGI (DMS 273 small cell lung): > 25 µM
TGI (SW-620 colon): > 25 µM
TGI (TK-10 renal): > 25 µM
TGI (HL-60(TB) leukemia): > 25 µM
TGI (SK-MEL-5 melanoma): > 25 µM
TGI (CAKI-1 renal): > 25 µM
TGI (MALME-3M melanoma): > 25 µM
TGI (OVCAR-8 ovarian): > 25 µM
TGI (SK-MEL-28 melanoma): > 25 µM
TGI (NCI-H226 lung): > 25 µM
TGI (U251 CNS): > 25 µM
TGI (HCT-15 colon): > 25 µM
TGI (M14 melanoma): > 25 µM
TGI (RXF 393 renal): > 25 µM
TGI (M19-MEL melanoma): > 25 µM
TGI (K-562 leukemia): > 25 µM
TGI (SN12C renal): > 25 µM
TGI (NCI-H522 lung): 21.1 µM
TGI (SNB-78 CNS): > 25 µM
TGI (OVCAR-3 ovarian): > 25 µM
TGI (786-0 renal): > 25 µM
TGI (RPMI-8226 leukemia): > 25 µM
TGI (LXFL 529 NSCLC): > 25 µM
TGI (SF-539 CNS): > 25 µM
TGI (IGROV1 ovarian): > 25 µM
TGI (SNB-19 CNS): > 25 µM
TGI (SNB-75 CNS): > 25 µM
TGI (A549 NSCLC): > 25 µM
TGI (KM20L2 colon): > 25 µM
TGI (HT29 colon): > 25 µM
TGI (COLO 205 colon): > 25 µM
TGI (OVCAR-5 ovarian): > 25 µM
TGI (HCC-2998 colon): > 25 µM
TGI (UACC-62 melanoma): > 25 µM
TGI (UACC-257 melanoma): > 25 µM
TGI (MOLT-4 leukemia): > 25 µM
TGI (DLD-1 colon): > 25 µM
TGI (EKVX NSCLC): > 25 µM
TGI (NCI-H23 lung): > 25 µM
TGI (HCT-116 colon): > 25 µM
TGI (SK-MEL-2 melanoma): > 25 µM
TGI (CCRF-CEM leukemia): > 25 µM
TGI (SF-268 CNS): > 25 µM
TGI (DMS 114 small cell lung): > 25 µM
TGI (ACHN renal): > 25 µM
TGI (UO-31 renal): > 25 µM
TGI (NCI-H460 lung): > 25 µM
TGI (SR leukemia): > 25 µM
TGI (LOX IMVI melanoma): > 25 µM
TGI (HOP-62 NSCLC): > 25 µM
